Assay results as given in ChEMBL document CHEMBL3507680, “University of Dundee, Gates Library screen for HepG2 cell viability”.

Test: Human HepG2 cell viability assay in 384 well format
Type: toxicity, cell-based
Set-up: dose 125 nL, time 70.5 hour; cytotoxicity at 70.5 h: concentration not given beside the values
Conditions: HepG2 cells, read-out: Inhibition

SMILES | cytotoxicity at 70.5 h
COc1ccccc1CN1C[C@@H]2COC[C@]2(COc2cccnc2)C1 | -116%
COCCN1CCCn2cnc(CN(C)C(C)C)c2C1 | 4.24%
CCS(=O)(=O)c1ccc(N2CCC(NC(C)=O)CC2)cc1 | -5.9%
CCOc1cccc(CNc2cncc(-n3cccn3)n2)c1 | -8.59%
CCn1ccnc1CN1CCN(C(C)C(=O)NC2CCCCC2)CC1 (stereo not drawn) | 33.2%
Cc1cc(CC(C)Nc2ncnc3cccc(F)c23)[nH]n1 (stereo not drawn) | 2.32%
CCCC(C)(C)NC(=O)c1cnc(C)s1 | 2.45%
Nc1nc(CN2CCN(c3nccs3)CC2)cs1 | -5.16%
CC(C)C(NC(=O)NCCNc1ccccn1)c1cccs1 (stereo not drawn) | -8.85%
CCN(CC)C(=O)CSc1ccc(C(F)(F)F)cn1 | -6.72%
Cc1ccc(C)c(OC2CCN(C(=O)NCC(=O)N3CCCC3)CC2)c1 | -5.3%
CN(C)CCNCC1COCc2c(-c3ccnn3C)nnn2C1 (stereo not drawn) | 16.1%
CCS(=O)(=O)N[C@H]1CN(Cc2noc(COC)n2)C[C@@H]1C1CC1 | -8.57%
Cc1ccc(NC(=O)CN2CCCNC2=O)c(SC(F)(F)F)c1 | -7.48%
O=C([C@H]1CN(Cc2nccs2)C[C@H]2OCC[C@@H]12)N1CCCC1 | 10.2%
O=C(c1ncn2c1CNS(=O)(=O)c1ccccc1-2)N1CC=CC1 | 1.87%
Cn1ccnc1CN1CCC2(COCCN(Cc3ccsc3)C2)C1 (stereo not drawn) | -11.4%
CC(C)c1nccc(CN2CCCC(O)(CN(C)C)CC2)n1 (stereo not drawn) | -7.74%
CCC(C(=O)N1CCN(C(=O)N2CCOCC2)CC1)n1cccn1 (stereo not drawn) | -5.93%
CC(C)CC(NCc1ccsc1)c1ccccn1 (stereo not drawn) | 22.4%
CN(C)c1nccc(CNS(=O)(=O)c2ccc(F)c(Cl)c2)n1 | -5.5%
O=C1CCC2(CCN(Cc3ccoc3)CC2)N1OCc1ccccc1F | -7.61%
CN(C)S(=O)(=O)N1CCCC(c2cccc(Cc3ccccc3F)n2)C1 (stereo not drawn) | 11.4%

SMILES | cytotoxicity at 70.5 h
CC(C)CCN1Cc2c(C(=O)O)ncn2-c2ccccc2S1(=O)=O | 30.1%
O=C(CCCOCc1ccccc1)N1CCCC(n2cncn2)C1 (stereo not drawn) | -1.64%
Cc1nc(C)n(CC2CCCN(CCOc3ccc(C#N)cc3)C2)n1 (stereo not drawn) | -11.5%
Cc1ccc2c(c1)C(NCc1nnc3n1CCCCC3)CCCO2 (stereo not drawn) | 11.8%
Cc1nc(NC(=O)OC(C)(C)C)sc1C(N)=O | -2.34%
O=C(NCc1cncc2c1CCN(C1CCOCC1)C2)c1ccno1 | -7.6%
Cn1cc(C(=O)Nc2cccc(Oc3ccncc3)c2)ccc1=O | -4.83%
c1cnn(Cc2cnc3n2CCN(CC2CCCCC2)C3)c1 | -6.48%
CCC(CC)NCC(c1ccccn1)N1CCOCC1 (stereo not drawn) | 2.77%
COc1ccc(Br)cc1CCC(=O)N1CCCC(O)C1 (stereo not drawn) | -5.19%
Cc1nc(CN2CCCC2c2[nH]ncc2C(=O)N(C)C)cs1 (stereo not drawn) | -2.79%
O=C(c1ccncc1)N1CCC2(CCCN(c3ncc(F)cn3)C2)C1 (stereo not drawn) | -2.34%
CC(C(=O)N1CCCN(Cc2cnn(C)c2)CC1)n1ccnc1 (stereo not drawn) | 23.2%
Cc1csc(CN2CC[C@H]3C[C@@H](c4nnc(C)[nH]4)O[C@@H]3C2)n1 | 0.739%
O=C(CSc1ccccc1)N1CCC(N2CCCCC2=O)CC1 | 19%
O=C(Nc1cnccn1)[C@H]1CC[C@@H]2[C@@H](CCN2Cc2ccccn2)O1 | -0.71%
O=C(N1CCCC1)N1CCn2c(nnc2C2CCCN2)C1 (stereo not drawn) | -9.61%
COCCC1(CO)CCCN(C(=O)c2cccnc2O)C1 (stereo not drawn) | -3.89%
CN(C)C(=O)[C@@H]1CCO[C@@H]2CCN(c3ncccn3)C[C@@H]21 | -2.08%
CCn1nc2c(cc1=O)CN(Cc1nc(-c3ccco3)no1)CC2 | -10.1%
Cc1occc1C(=O)N1CCC2(CCCN(CC3CCC3)C2=O)C1 (stereo not drawn) | -4.3%
Cc1cnc(N2C[C@@H]3[C@@H](C(=O)NCC(C)C)CCS(=O)(=O)[C@@H]3C2)nc1 | 0.36%
O=C(CN1CCCS1(=O)=O)Nc1ccc(OC(F)F)cc1 | -9.68%

SMILES | cytotoxicity at 70.5 h
O=C(CCCNCc1ccccc1)N1CCCn2cncc2C1 | -4.58%
Cc1ccc(NC(=O)Nc2cnc(N3CCN(C)CC3)nc2)c(Cl)c1 | 3.18%
CCCOc1ccc2c(c1)OCC(CNC1CCc3ncnn3C1)=C2 (stereo not drawn) | -6.97%
c1csc(CN2C[C@@H](n3cccn3)[C@H]3OCCC[C@H]32)c1 | -3.02%
CCN(CC)C1COc2ccc(Br)cc2C1=O (stereo not drawn) | -5.6%
NC(=O)NCC1CCCCN1C(=O)c1cc(F)cc(F)c1 (stereo not drawn) | -2.44%
CCc1nc2n(n1)CC(NCc1nc3ccccc3o1)CC2 (stereo not drawn) | -8.97%
CC(Cc1ccco1)NS(=O)(=O)N1CCCCCC1 (stereo not drawn) | -8.2%
CCCNC(=O)CCNC1CSCCc2ccccc21 (stereo not drawn) | -2.78%
Cn1cc(CN2CCC(c3cc(COc4cccc(Cl)c4)[nH]n3)C2)cn1 (stereo not drawn) | -0.141%
CC(O)CN1CCN(C(=O)c2cc(Cl)cc3cccnc23)CC1 (stereo not drawn) | -5.43%
O=C(c1cccnc1)N1CCc2c(nc(N3CCCC3)[nH]c2=O)C1 | -4.95%
Cc1nc(CNC(=O)c2cc(COc3cccc(F)c3)[nH]n2)n[nH]1 | 15.3%
Cc1cc(C2CCCN(CCS(=O)(=O)c3ccccc3)C2)n[nH]1 (stereo not drawn) | -8.26%
Cc1ccc(Cl)cc1NCc1nc2[nH]c(C)c(C)c(=O)n2n1 | -0.0581%
CC(=O)NCCCOc1c(C)cccc1Cl | -2.28%
OCCCN1CCOC(c2ccc(F)cc2)C1 (stereo not drawn) | -6.31%
COc1ccc2c(c1)CN(C)C(=O)CCN2CC(O)C(F)(F)F (stereo not drawn) | 11.9%
Cn1ccc(CN2CCC(OCCc3ccccc3)CC2)cc1=O | -5.72%
O=C(c1ccnnc1)N1CCN2C[C@H](OCc3ccccn3)C[C@H]2C1 | -4.04%
CCCc1nc(C(C)(C)NC(=O)C2CC(=O)N(C3CCCC3)C2)no1 (stereo not drawn) | -11.9%
COc1c(NC(=O)N(C)CCOc2ccccc2)c(C)nn1C | 15.1%
CN(C)c1nc2n(c(=O)n1)CCN2C(=O)Nc1ccc(Cl)c(Cl)c1 | -10.9%

SMILES | cytotoxicity at 70.5 h
CC(Cn1cccn1)NCC(=O)N(C)Cc1ccsc1 (stereo not drawn) | 35.4%
O=S(=O)(C1CC1)N1CCC2(CCCN(Cc3ccccn3)C2)CC1 | -5.17%
CC(=O)N1CCC(c2n[nH]c3nccnc23)CC1 | -7.48%
Cc1cc(C(=O)N(C)Cc2ccn[nH]2)c(NC(=O)C(C)(C)C)s1 | -9.88%
CCN(CC)CCn1cnc(-c2ccccc2)c1-c1cnc(C)s1 | -7.41%
COCCNC(=O)NC1CCN(c2cnn(C)c2)C1 (stereo not drawn) | -4.09%
O=C1[C@H]2CN(CC3CCOCC3)C[C@H]2CN1c1ccsc1 | -1.42%
Cc1ccccc1-c1cc(C(=O)N2CCCC(n3ccnc3C)C2)[nH]n1 (stereo not drawn) | 13.3%
CCCn1nnnc1CN(c1ccc(N2CCOCC2)cc1)C(C)C | -8.46%
O=C(Cc1ccc(-n2cnnn2)cc1)Nc1nncs1 | -3.13%
CCC(CC)C(=O)c1c[nH]c(C(=O)N2CCN(c3ccccc3)CC2)c1 | -3.31%
O=C(C1CC=CC1)N1CC[C@@H](O)[C@H]1Cc1cccnc1 | 1.93%
O=C(c1ccnc(N2CCOC(c3ccc(Cl)cc3)C2)c1)N1CCCC1 (stereo not drawn) | -15.4%
CC(=O)c1ccc(OCC(=O)NS(=O)(=O)c2ccc(C)s2)cc1 | -14%
O=C(NCC1(N2CCOCC2)CCSC1)Nc1ccc(F)cc1 (stereo not drawn) | -6.94%
CCCc1nc(N2CCCC3(CCNC3)C2)c2cnn(C)c2n1 (stereo not drawn) | -7.26%
Cc1nc(C)n(CC2CCCN2Cc2cc(C)on2)n1 (stereo not drawn) | -1.6%
CCCn1ncc(CN2C[C@@H]3CCCN3C[C@H]2CCSC)c1C | -1.67%
O=S(=O)(c1cccc(F)c1)N1C[C@@H]2CC[C@H](C1)N(Cc1ccccc1)C2 | -12.7%
Cc1cnc(-c2nc(C3CCN(Cc4ccccc4C)CC3)no2)cn1 | -8.63%
CCc1c(C)nc2cc(C3CCN(Cc4ccncc4C)C3)nn2c1O (stereo not drawn) | -3.92%
O=C(CCN1CCCC1c1cccc2c1OCCO2)N1CCOCC1 (stereo not drawn) | -2.76%
COCCN1CCC(NCc2cccnc2)C1 (stereo not drawn) | 2.68%

SMILES | cytotoxicity at 70.5 h
Cc1nc(CN2CCO[C@@H]3CN(Cc4cccs4)C[C@@H]3C2)cs1 | -4.54%
COc1ncccc1CN1CCC2(CC1)CC(OCC1CC1)CO2 (stereo not drawn) | -4.27%
O=S(=O)(c1cccs1)N1CCCn2nnc(CN3CCCCC3)c2C1 | 0.152%
CCn1cnnc1CNC(=O)N1CCC(O)CC1 | -5.8%
NC(=O)C1CCN(C(=O)c2ccn(-c3ccc(F)cc3)n2)CC1 | 7.95%
CS(=O)(=O)NC1CCCN(C(=O)NCc2cc[nH]n2)C1 (stereo not drawn) | 10.8%
Cc1cc(C)nc(CN(C)c2nc(C3CCCC3)nc3c2cnn3C)c1 | -9.74%
CCC(O)CN1CCN(C(=O)Cc2ccc(C)nc2)CC1 (stereo not drawn) | -0.788%
CSC(C)C(=O)N1CCN(CC(C)(C)O)CC1 (stereo not drawn) | -14%
O=C(Nc1ccc(OC(F)F)cc1)N1CCC(c2nnc[nH]2)CC1 | -2.12%
CC(C)n1nc(CN2CCOCC2)c2c1CN(C(=O)c1ccno1)C2 | -4.42%
Cc1ccc(CN(C)C(=O)c2n[nH]c(N)c2-c2ccccc2)o1 | 28.7%
COc1ccc2nc(C)c(C(=O)NCCN3CCS(=O)(=O)CC3)cc2c1 | -1.47%
CC(=O)N1CCCN(C(=O)NCc2ccc(-c3ccn[nH]3)cc2)CC1 | -4.56%
Cc1ccccc1C1(C(=O)NCCN2CCOCC2)CCOCC1 | -9.98%
CNC(=O)CCN1CCN(C(C)c2ccc(Cl)cc2)CC1 (stereo not drawn) | -6.21%
N[C@@H]1c2ccccc2C2(CCN(C(=O)c3ccc(CO)o3)CC2)[C@H]1O | -5.57%
CN(C)S(=O)(=O)c1ccc(-c2nc(C#N)c(NC3CCCCC3)o2)o1 | -9.49%
CN(C)Cc1ccc(C2CCCCN2C(=O)c2cc(C3CC3)n[nH]2)cc1 (stereo not drawn) | -5%
Cc1cccc(-n2cc(C(=O)N3CCn4c(C)nnc4C3)nn2)c1 | 9.22%
Cc1nn(C)c(C)c1S(=O)(=O)N(C)Cc1nn(C)c(Cl)c1Cl | 18.2%
